Experimental data: article PMC6121034 (Frontiers in Cellular Neuroscience, 2018)
pEC50: −log10 of the molar value.

What was measured:
Assay type in all cases: cell-based
[1] = target: T1, α1β2γ2 GABAA receptor (α1 subunit), ALA mutant (Rattus norvegicus, UniProt P18508+P62813+P63138, P62813:F91A); test: whole-cell patch clamp, currents evoked by […] GABA; design: dose or concentration left out as unconfirmed
T1 construct: gene Gabra1; rat α1/β2/γ2L subunits expressed in HEK-293 cells; with GABAA receptor β2 (Gabrb2) and γ2L (Gabrg2) subunits
T1 sequence (P62813 28-455 F91A): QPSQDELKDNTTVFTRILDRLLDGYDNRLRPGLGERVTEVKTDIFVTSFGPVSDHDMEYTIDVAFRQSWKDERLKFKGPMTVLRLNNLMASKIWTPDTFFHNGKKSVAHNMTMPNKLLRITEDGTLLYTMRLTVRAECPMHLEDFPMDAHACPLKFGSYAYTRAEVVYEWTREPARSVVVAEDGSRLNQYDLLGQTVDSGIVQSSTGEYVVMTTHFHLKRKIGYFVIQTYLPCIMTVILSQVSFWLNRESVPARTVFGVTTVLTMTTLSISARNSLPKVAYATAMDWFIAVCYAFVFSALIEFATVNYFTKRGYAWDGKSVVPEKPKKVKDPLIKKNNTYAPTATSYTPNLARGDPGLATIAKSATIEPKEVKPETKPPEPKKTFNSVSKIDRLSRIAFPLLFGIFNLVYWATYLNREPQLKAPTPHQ
T1 sequence (P63138 26-474): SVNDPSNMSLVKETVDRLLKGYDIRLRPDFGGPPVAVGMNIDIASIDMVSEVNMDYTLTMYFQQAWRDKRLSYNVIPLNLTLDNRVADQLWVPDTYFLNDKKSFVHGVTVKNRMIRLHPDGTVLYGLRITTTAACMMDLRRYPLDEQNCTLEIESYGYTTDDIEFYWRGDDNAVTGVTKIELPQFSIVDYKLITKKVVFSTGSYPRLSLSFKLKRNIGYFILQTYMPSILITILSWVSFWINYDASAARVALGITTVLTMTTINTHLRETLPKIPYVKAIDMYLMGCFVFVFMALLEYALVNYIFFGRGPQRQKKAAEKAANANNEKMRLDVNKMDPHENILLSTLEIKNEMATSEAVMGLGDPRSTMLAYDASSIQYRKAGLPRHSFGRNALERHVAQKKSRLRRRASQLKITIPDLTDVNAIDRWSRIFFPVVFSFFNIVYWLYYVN
T1 sequence (P18508 39-466): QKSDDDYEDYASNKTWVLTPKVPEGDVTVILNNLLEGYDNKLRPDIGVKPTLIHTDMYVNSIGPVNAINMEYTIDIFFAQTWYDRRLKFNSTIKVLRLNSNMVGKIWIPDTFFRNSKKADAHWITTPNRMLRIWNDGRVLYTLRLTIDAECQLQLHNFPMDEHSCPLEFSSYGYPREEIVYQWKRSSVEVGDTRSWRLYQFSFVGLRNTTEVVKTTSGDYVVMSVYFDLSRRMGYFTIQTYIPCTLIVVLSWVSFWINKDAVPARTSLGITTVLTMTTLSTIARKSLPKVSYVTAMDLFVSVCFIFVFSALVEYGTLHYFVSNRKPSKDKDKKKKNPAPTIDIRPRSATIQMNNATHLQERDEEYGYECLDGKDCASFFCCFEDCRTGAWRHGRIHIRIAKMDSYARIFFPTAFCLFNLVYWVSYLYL

[2] = target: T2, α1β2γ2 GABAA receptor (α1 subunit), LEU mutant (Rattus norvegicus, UniProt P18508+P62813+P63138, P62813:F91L); test: whole-cell patch clamp, currents evoked by […] GABA
T2 construct: gene Gabra1; rat α1/β2/γ2L subunits expressed in HEK-293 cells; with GABAA receptor β2 (Gabrb2) and γ2L (Gabrg2) subunits
T2 sequence (P62813 28-455 F91L): as the sequence (P62813 28-455 F91A) above, with A64L counted along it
T2 sequence (P63138 26-474): as the sequence (P63138 26-474) above
T2 sequence (P18508 39-466): as the sequence (P18508 39-466) above

[3] = target: T3, α1β2γ2 GABAA receptor (α1 subunit) (Rattus norvegicus, UniProt P18508+P62813+P63138); test: whole-cell patch clamp dose-response, partial agonist
T3 construct: gene Gabra1; rat α1/β2/γ2L subunits expressed in HEK-293 cells; with GABAA receptor β2 (Gabrb2) and γ2L (Gabrg2) subunits
T3 sequence (P62813 28-455): as the sequence (P62813 28-455 F91A) above, with A64F counted along it
T3 sequence (P63138 26-474): as the sequence (P63138 26-474) above
T3 sequence (P18508 39-466): as the sequence (P18508 39-466) above

| Compound | whole-cell patch clamp, currents evoked by GABA [1] | whole-cell patch clamp, currents evoked by 100 mM GABA [2] | pEC50 [3] |
| --- | --- | --- | --- |
| NCCCC(=O)O [GABA] | Typical traces of current responses to saturating [GABA] application (black traces) | Typical traces of current responses to saturating [GABA] application (black traces) | – |
| O=S(=O)(O)C1CCNCC1 [P4S, piperidine-4-sulfonic acid] | – | – | 4.34 |
